Assay results reported in US10405547B2, “Substituted cyclic amides as herbicides” (FMC Corporation, priority 2015, dated 2019).

Assays:
Type in all cases: in vivo
[1] = test system: kochia (Kochia scoparia); experiment: Test A postemergence, kochia; conditions: visual injury, 0 to 100 scale (0 no effect, 100 complete control), approximately 10 days
Summary of the method: (§1)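 Greenhouse test: compounds in solvent with surfactant sprayed onto loam–sand soil after planting (preemergence) or onto plants 2-10 cm at the one- to two-leaf stage (postemergence). Injury visually rated versus untreated controls after about 10 days on a 0-100 scale (100 = complete control).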

[2] = test system: foxtail, giant (Setaria faberii); experiment: Test A preemergence, giant foxtail; conditions: 0 to 100 scale (0 no effect, 100 complete control)
Summary of the method: as §1

[3] = test system: pigweed (Amaranthus retroflexus); experiment: Test A preemergence, pigweed; conditions: 0 to 100 scale (0 no effect, 100 complete control)
Summary of the method: as §1

[4] = test system: barnyardgrass (Echinochloa crus-galli); experiment: Test A preemergence, barnyardgrass; conditions: 0 to 100 scale (0 no effect, 100 complete control)
Summary of the method: as §1

[5] = test system: rice (Oryza sativa); experiment: Test B flooded paddy test, rice; conditions: 250 g ai/ha, applied to paddy water, visual rating after 13 to 15 days, scale 0 (no effect) to 100 (complete control)
Summary of the method: (§2)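 Greenhouse pots flooded to 3 cm above soil at time of treatment received compound via the water, which stayed at that level.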

[6] = test system: ragweed (common ragweed, Ambrosia elatior); experiment: Test A preemergence, ragweed; conditions: 0 to 100 scale (0 no effect, 100 complete control)
Summary of the method: as §1

[7] = test system: kochia (Kochia scoparia); experiment: Test A preemergence, kochia; conditions: 0 to 100 scale (0 no effect, 100 complete control)
Summary of the method: as §1

[8] = test system: barnyardgrass (Echinochloa crus-galli); experiment: Test B flooded paddy test, barnyardgrass; conditions: 250 g ai/ha, applied to paddy water, visual rating after 13 to 15 days, scale 0 (no effect) to 100 (complete control)
Summary of the method: as §2

[9] = test system: sedge, umbrella (small-flower umbrella sedge, Cyperus difformis); experiment: Test B flooded paddy test, umbrella sedge; conditions: 250 g ai/ha, applied to paddy water, visual rating after 13 to 15 days, scale 0 (no effect) to 100 (complete control)
Summary of the method: as §2

[10] = test system: corn (Zea mays); experiment: Test A postemergence, corn; conditions: visual injury, 0 to 100 scale (0 no effect, 100 complete control), approximately 10 days
Summary of the method: as §1

[11] = test system: foxtail, giant (Setaria faberii); experiment: Test A postemergence, giant foxtail; conditions: visual injury, 0 to 100 scale (0 no effect, 100 complete control), approximately 10 days
Summary of the method: as §1

[12] = test system: ducksalad (Heteranthera limosa); experiment: Test B flooded paddy test, ducksalad; conditions: 250 g ai/ha, applied to paddy water, visual rating after 13 to 15 days, scale 0 (no effect) to 100 (complete control)
Summary of the method: as §2

[13] = test system: wheat (Triticum aestivum); experiment: Test A postemergence, wheat; conditions: visual injury, 0 to 100 scale (0 no effect, 100 complete control), approximately 10 days
Summary of the method: as §1

[14] = test system: ragweed (common ragweed, Ambrosia elatior); experiment: Test A postemergence, ragweed; conditions: visual injury, 0 to 100 scale (0 no effect, 100 complete control), approximately 10 days
Summary of the method: as §1

[15] = test system: ryegrass, Italian (Lolium multiflorum); experiment: Test A preemergence, Italian ryegrass; conditions: 0 to 100 scale (0 no effect, 100 complete control)
Summary of the method: as §1

[16] = test system: ryegrass, Italian (Lolium multiflorum); experiment: Test A postemergence, Italian ryegrass; conditions: visual injury, 0 to 100 scale (0 no effect, 100 complete control), approximately 10 days
Summary of the method: as §1

[17] = test system: barnyardgrass (Echinochloa crus-galli); experiment: Test A postemergence, barnyardgrass; conditions: visual injury, 0 to 100 scale (0 no effect, 100 complete control), approximately 10 days
Summary of the method: as §1

[18] = test system: blackgrass (Alopecurus myosuroides); experiment: Test A postemergence, blackgrass; conditions: visual injury, 0 to 100 scale (0 no effect, 100 complete control), approximately 10 days
Summary of the method: as §1

[19] = test system: pigweed (Amaranthus retroflexus); experiment: Test A postemergence, pigweed; conditions: visual injury, 0 to 100 scale (0 no effect, 100 complete control), approximately 10 days
Summary of the method: as §1

[20] = test system: galium (catchweed bedstraw, Galium aparine); experiment: Test A postemergence, galium; conditions: visual injury, 0 to 100 scale (0 no effect, 100 complete control), approximately 10 days
Summary of the method: as §1

SMILES | Plant response rating, Kochia ([1]; 125 g ai/ha) | Plant response rating, Kochia ([1]; 500 g ai/ha) | Plant response rating, Foxtail, Giant ([2]; 125 g ai/ha) | Plant response rating, Foxtail, Giant ([2]; 500 g ai/ha) | Plant response rating, Pigweed ([3]; 125 g ai/ha) | Plant response rating, Pigweed ([3]; 500 g ai/ha) | Plant response rating, Barnyardgrass ([4]; 125 g ai/ha) | Plant response rating, Barnyardgrass ([4]; 500 g ai/ha) | Plant response rating, Rice (Flood) [5] | Plant response rating, Ragweed ([6]; 125 g ai/ha) | Plant response rating, Ragweed ([6]; 500 g ai/ha) | Plant response rating, Kochia ([7]; 125 g ai/ha) | Plant response rating, Kochia ([7]; 500 g ai/ha) | Plant response rating, Barnyardgrass (Flood) [8] | Plant response rating, Sedge, Umbrella (Flood) [9] | Plant response rating, Corn ([10]; 125 g ai/ha) | Plant response rating, Corn ([10]; 500 g ai/ha) | Plant response rating, Foxtail, Giant ([11]; 125 g ai/ha) | Plant response rating, Foxtail, Giant ([11]; 500 g ai/ha) | Plant response rating, Ducksalad (Flood) [12] | other results
O=C1NCC(c2cccc(OCC3OCCO3)c2)C1C(=O)Nc1cccc(F)c1F (stereo not drawn) [Compound 7] | 0 | 0 | 90 | 90 | 60 | 60 | 60 | 90 | 0 | 0 | 0 | 0 | 0 | 0 | 0 | 0 | 20 | 20 | 70 | 75 | Plant response rating, Wheat ([13]; 125 g ai/ha): 0; Plant response rating, Wheat ([13]; 500 g ai/ha): 40; Plant response rating, Ragweed ([14]; 125 g ai/ha): 0; Plant response rating, Ragweed ([14]; 500 g ai/ha): 20; Plant response rating, Ryegrass, Italian ([15]; 125 g ai/ha): 30; Plant response rating, Ryegrass, Italian ([15]; 500 g ai/ha): 30; Plant response rating, Ryegrass, Italian ([16]; 125 g ai/ha): 0; Plant response rating, Ryegrass, Italian ([16]; 500 g ai/ha): 20; Plant response rating, Barnyardgrass ([17]; 125 g ai/ha): 40; Plant response rating, Barnyardgrass ([17]; 500 g ai/ha): 70; Plant response rating, Blackgrass ([18]; 125 g ai/ha): 0; Plant response rating, Blackgrass ([18]; 500 g ai/ha): 40; Plant response rating, Pigweed ([19]; 125 g ai/ha): 0; Plant response rating, Pigweed ([19]; 500 g ai/ha): 0; Plant response rating, Galium ([20]; 125 g ai/ha): 20; Plant response rating, Galium ([20]; 500 g ai/ha): 40
O=C1NCC(c2cccc(OCC3OCCO3)c2)C1C(=O)Nc1ccccc1F (stereo not drawn) [Compound 8] | 0 | 0 | 80 | 90 | 0 | 0 | 50 | 80 | 0 | 0 | 0 | 0 | 0 | 0 | 0 | 0 | 20 | 0 | 70 | 35 | Plant response rating, Wheat ([13]; 125 g ai/ha): 0; Plant response rating, Wheat ([13]; 500 g ai/ha): 0; Plant response rating, Ragweed ([14]; 125 g ai/ha): 0; Plant response rating, Ragweed ([14]; 500 g ai/ha): 10; Plant response rating, Ryegrass, Italian ([15]; 125 g ai/ha): 0; Plant response rating, Ryegrass, Italian ([15]; 500 g ai/ha): 0; Plant response rating, Ryegrass, Italian ([16]; 125 g ai/ha): 0; Plant response rating, Ryegrass, Italian ([16]; 500 g ai/ha): 0; Plant response rating, Barnyardgrass ([17]; 125 g ai/ha): 0; Plant response rating, Barnyardgrass ([17]; 500 g ai/ha): 70; Plant response rating, Blackgrass ([18]; 125 g ai/ha): 0; Plant response rating, Blackgrass ([18]; 500 g ai/ha): 20; Plant response rating, Pigweed ([19]; 125 g ai/ha): 0; Plant response rating, Pigweed ([19]; 500 g ai/ha): 0; Plant response rating, Galium ([20]; 125 g ai/ha): 0; Plant response rating, Galium ([20]; 500 g ai/ha): 0
O=C1NCC(c2cccc(OCc3ccco3)c2)C1C(=O)Nc1cccc(F)c1F (stereo not drawn) [Compound 9] | 0 | 0 | 10 | 70 | 0 | 0 | 10 | 70 | 0 | 0 | 0 | 0 | 0 | 0 | 30 | 0 | 20 | 0 | 50 | 30 | Plant response rating, Wheat ([13]; 125 g ai/ha): 0; Plant response rating, Wheat ([13]; 500 g ai/ha): 0; Plant response rating, Ragweed ([14]; 125 g ai/ha): 0; Plant response rating, Ragweed ([14]; 500 g ai/ha): 0; Plant response rating, Ryegrass, Italian ([15]; 125 g ai/ha): 0; Plant response rating, Ryegrass, Italian ([15]; 500 g ai/ha): 0; Plant response rating, Ryegrass, Italian ([16]; 125 g ai/ha): 0; Plant response rating, Ryegrass, Italian ([16]; 500 g ai/ha): 0; Plant response rating, Barnyardgrass ([17]; 125 g ai/ha): 30; Plant response rating, Barnyardgrass ([17]; 500 g ai/ha): 60; Plant response rating, Blackgrass ([18]; 125 g ai/ha): 0; Plant response rating, Blackgrass ([18]; 500 g ai/ha): 0; Plant response rating, Pigweed ([19]; 125 g ai/ha): 0; Plant response rating, Pigweed ([19]; 500 g ai/ha): 0; Plant response rating, Galium ([20]; 125 g ai/ha): 0; Plant response rating, Galium ([20]; 500 g ai/ha): 0
O=C1NCC(c2cccc(OCc3ccco3)c2)C1C(=O)Nc1ccccc1F (stereo not drawn) [Compound 10] | 0 | 0 | 0 | 0 | 0 | 0 | 0 | 0 | 0 | 0 | 0 | 0 | 0 | 0 | 40 | 0 | 0 | 0 | 30 | 60 | Plant response rating, Wheat ([13]; 125 g ai/ha): 0; Plant response rating, Wheat ([13]; 500 g ai/ha): 0; Plant response rating, Ragweed ([14]; 125 g ai/ha): 0; Plant response rating, Ragweed ([14]; 500 g ai/ha): 0; Plant response rating, Ryegrass, Italian ([15]; 125 g ai/ha): 0; Plant response rating, Ryegrass, Italian ([15]; 500 g ai/ha): 0; Plant response rating, Ryegrass, Italian ([16]; 125 g ai/ha): 0; Plant response rating, Ryegrass, Italian ([16]; 500 g ai/ha): 0; Plant response rating, Barnyardgrass ([17]; 125 g ai/ha): 10; Plant response rating, Barnyardgrass ([17]; 500 g ai/ha): 60; Plant response rating, Blackgrass ([18]; 125 g ai/ha): 0; Plant response rating, Blackgrass ([18]; 500 g ai/ha): 0; Plant response rating, Pigweed ([19]; 125 g ai/ha): 0; Plant response rating, Pigweed ([19]; 500 g ai/ha): 0; Plant response rating, Galium ([20]; 125 g ai/ha): 0; Plant response rating, Galium ([20]; 500 g ai/ha): 0
O=C1NCC(c2cccc(OCC3CC3)c2)C1C(=O)Nc1ccccc1F (stereo not drawn) [Compound 11] | 0 | 0 | 80 | 90 | 0 | 30 | 60 | 90 | 0 | 0 | 0 | 0 | 40 | 0 | 0 | 0 | 20 | 50 | 90 | 0 | Plant response rating, Wheat ([13]; 125 g ai/ha): 0; Plant response rating, Wheat ([13]; 500 g ai/ha): 20; Plant response rating, Ragweed ([14]; 125 g ai/ha): 30; Plant response rating, Ragweed ([14]; 500 g ai/ha): 40; Plant response rating, Ryegrass, Italian ([15]; 125 g ai/ha): 0; Plant response rating, Ryegrass, Italian ([15]; 500 g ai/ha): 20; Plant response rating, Ryegrass, Italian ([16]; 125 g ai/ha): 0; Plant response rating, Ryegrass, Italian ([16]; 500 g ai/ha): 20; Plant response rating, Barnyardgrass ([17]; 125 g ai/ha): 50; Plant response rating, Barnyardgrass ([17]; 500 g ai/ha): 90; Plant response rating, Blackgrass ([18]; 125 g ai/ha): 0; Plant response rating, Blackgrass ([18]; 500 g ai/ha): 40; Plant response rating, Pigweed ([19]; 125 g ai/ha): 0; Plant response rating, Pigweed ([19]; 500 g ai/ha): 20; Plant response rating, Galium ([20]; 125 g ai/ha): 0; Plant response rating, Galium ([20]; 500 g ai/ha): 30
